In patent US20110302823A1, “ATTRACTANT COMPOSITIONS FOR WEEVILS OF THE GENUS OT[…] USES THEREOF” (Stichting Dienst Landbouwkundig Onderzoek, priority 2010, published 2011):

Experiments:
[1] = test system: O. sulcatus; assay: Field experiment: attraction of weevils to odor dispensers in a strawberry field; type: in vivo, Otiorhynchus sulcatus; conditions: for number of weevils per replicate (O. sulcatus caught): total of whole season, back-transformed mean, 0.4 ml of each compound per dispenser, control 4.3
Method: A selection of single plant compounds (A=(Z)-2-pentenol and B=(E)-2-hexenol) and combinations of plant compounds (C=A+B in ratio 1:1, D=A+methyl eugenol in ratio 1:1, and E=A+B+methyl eugenol in ratio 1:1:1) were tested in a strawberry field (Fragaria×ananassa ‘Tillamook’) for attraction of O. sulcatus. Choice of compounds and mixtures were based on identification of EAD-active compounds from headspace of weevil-damaged E. fortunei ‘Dart's Blanket’ plants and paraffin oil extract of the same Euonymus plant species combined with bioassay results with the EAD-active compounds alone and in several mixtures (Van Tol, unpublished). The compound (Z)-2-pentenol (purity 95%) was obtained from Bedoukian (Danbury, Conn., USA), (E)-2-hexenol (purity >96%) from Acros (Geel, Belgium) and methyl eugenol (purity >98%) from Sigma-Aldrich (St. Louis, Mo., USA). All chemicals were used without further purification. Single compounds and mixtures were introduced in dispensers prior to use and sealed. In each dispenser 0.4 ml of each compound was present.
Plant volatile dispensers were made of 1.5 ml LDPE Pasteur pipettes (Labo Scientific, Ede, the Netherlands). The compounds to be tested were introduced into the pipette, the tip of which was then sealed by heat. Prior to use, the tip of the pipette was cut off at 1 cm above the reservoir portion. […] The dispenser is a simple and cheap existing design which enables a high release profile especially for larger quantities of plant volatiles. […]
(§1) Experiments were performed on a commercial strawberry field in Oregon (USA). […] Traps and dispensers were placed in the fields and monitored for weevils' presence between May and August 2009. […] Traps and plants surrounding each trap-dispenser combination were monitored for weevils weekly. […]

[2] = test system: O. sulcatus antenna; assay: GC-EAD antennal response to plant headspace volatiles; set-up: species or system Otiorhynchus sulcatus; conditions: headspace of E. fortunei 'Dart's Blanket' plants and paraffin oil extract; not quantified
Method: (§2) Volatiles were collected from a bio-active extract of Euonymus fortunei ‘Dart's Blanket’ in paraffin oil and from cuttings of mechanically damaged and O. sulcatus-damaged E. fortunei ‘Dart's Blanket’. The antennal response to these plant odours by O. sulcatus were measured by gas chromatography coupled with electroantennogram detection (GC-EAD). Compounds giving an electrophysiological response were tentatively identified by gas chromatography coupled with mass-spectrometry (GC-MS). […] A selection of plant volatiles that gave an electrophysiological reaction on the antenna were tested as single compounds and in several mixtures of two or more compounds on bioactivity using the olfactometer developed specifically to study vine weevil behaviour (see e.g., Van Tol et al., (2002) Physiological Entomology 27, 213-222). A small selection of compounds bioactive in the lab was tested under field conditions in strawberry.
A filtered 10-ml extract of E. fortunei ‘Dart's Blanket’ in paraffin oil (Merck, Uvasol) and four O. sulcatus-damaged and four mechanically damaged 20-cm long cuttings of field-grown E. fortunei ‘Dart's Blanket’ were used for headspace collection. The extract was prepared by crushing 30 g of fresh leaves from the top 15 cm part of stems with 50 ml of paraffin oil on ice. The extract was crushed for approximately 20 min followed by immediately filtering through Whatman No. 90 (diameter 15 cm) paper filter. The filtered Euonymus extract was stored cool until use. Cuttings of Euonymus were mechanically damaged with a scissor by four incisions per leaf three hours prior to headspace collection.
The O. sulcatus-damaged Euonymus cuttings were prepared by offering 10 vine weevils 16 hrs prior to headspace collecting the cuttings. Weevils were removed and cuttings washed with deionized water prior to placing in a fresh 100 ml flask with water for headspace collection. For three days the Euonymus cuttings or a daily refreshed 10-ml paraffin oil extract of Euonymus in an open Petri-dish were placed under a glass bell jar (5 l) in a growth chamber at 20° C. and under long day (L:D=16:8 hr) light conditions. Air was purified by passage through a charcoal filter and drawn at 0.2 l min^−1 through the jar. Volatiles were entrained for a total of 69 hrs. For the collecting of volatiles, Gerstel thermodesorption tubes, filled with 80 mg Tenax TA 20/35 mesh (Grace Alltech), were used. Before use, these tubes were cleaned by rinsing them with 10 ml hexane and, subsequently, flushing them for one hour at 280° C. with 20 ml min purified nitrogen. Each Tenax tube was refreshed after approximately 8 hrs. The volatiles trapped on the Tenax were washed off with 15 ml hexane. […]

[3] = test system: O. sulcatus; assay: Laboratory (olfactometer) and field tests of attraction; type: in vivo, Otiorhynchus sulcatus
Method: as §2
as §1, with “(USA). Five different treatments (A, B, C, D and E) and one control were tested in the field. The control consisted of an empty dispenser.” for “(USA).”

| Structure (SMILES) | number of weevils per replicate (O. sulcatus caught) [1] | antennal (EAD) response [2] | attraction of O. sulcatus in strawberry (in words) [1] | attractive to O. sulcatus in laboratory and field tests (in words) [3] |
| --- | --- | --- | --- | --- |
| CCC/C=C/CO [Treatment B, (E)-2-hexenol] | 4.3 | EAD-active |  |  |
| CC/C=C\CCO [(Z)-3-hexenol] |  | EAD-active |  |  |
| CC/C=C\CO [Treatment A, (Z)-2-pentenol] | 11.3 | EAD-active | attractive | attractive |
| C=C/C=C(\C)CCC=C(C)C [DMNT] |  | EAD-positive |  |  |
